Measurements published in paper PMC5030124 (Nature chemical biology, 2016).

Columns and labels:
[1] = system: AR target gene expression in LNCaP-AR cells; assay: Real-time PCR of AR target genes in LNCaP-AR cells; format: cell-based; conditions: CBs 20 μM, Enz 10 μM; for AR target gene expression, absence of R1881: Bic 10 μM
[2] = system: AR recruitment to KLK3 and NKX3-1 regulatory regions in LNCaP-AR cells; assay: Chromatin immunoprecipitation assay, LNCaP-AR cells; format: cell-based; conditions: Enz 10 μM, Bic 10 μM, 10 20 μM, R1881 0.1 nM
in vivo = conditions: NSG, mouse, ip
LNCaP-AR cells = assay: Prostate cancer cell proliferation assay, LNCaP-AR; conditions: 7 days, increasing doses, no R1881
[3] = system: nuclear AR in HEK293 cells expressing wt-AR; assay: Cellular fractionation assay, HEK293 cells expressing wt-AR; format: cell-based; conditions: 4 hours, R1881 0.1 nM
[4] = system: AR subcellular distribution in VCaP cells; assay: High content imaging of AR N/C ratio, VCaP cells; conditions: R1881 0.1 nM, Enz 20 μM, 10 20 μM
[5] = system: AR subcellular distribution in HEK293 cells expressing wt-AR; assay: High content imaging of AR N/C ratio, HEK293 cells expressing wt-AR; conditions: R1881 0.1 nM, Enz 20 μM, 10 20 μM

Row | Compound | AR target gene expression, absence of R1881 [1] | AR target gene expression, presence of R1881 ([1]; R1881 0.1 nM) | recruitment of AR to DNA (ChIP) [2] | MTD (in vivo) [mg/kg] | cell growth of LNCaP-AR cells (LNCaP-AR cells) | AR in nuclear and cytoplasmic fractions [3] | AR nuclear-to-cytoplasmic (N/C) ratio [4] | AR nuclear-to-cytoplasmic (N/C) ratio [5]
1 | CNC(=O)c1ccc(N2C(=S)N(c3ccc(C#N)c(C(F)(F)F)c3)C(=O)C2(C)C)cc1F [Enz, enzalutamide] | did not promote AR target gene transcription | reversed androgen-stimulated gene expression | without effect | 15 | without effect | – | – | –
2 | CC(O)(CS(=O)(=O)c1ccc(F)cc1)C(=O)Nc1ccc(C#N)c(C(F)(F)F)c1 (stereo not drawn) [Bic, bicalutamide] | partial agonist | – | facilitated AR recruitment to DNA | – | promoted cellular proliferation | – | – | –
3 | C[C@]1(O)CC[C@H]2[C@@H]3CCC4=CC(=O)CCC4=C3C=C[C@@]21C [R1881] | – | – | facilitated AR recruitment to DNA | – | – | movement of AR from the cytoplasmic to nuclear fraction | increase in AR nuclear-to-cytoplasmic (N/C) ratio | increase in AR nuclear-to-cytoplasmic (N/C) ratio
